According to US5631248A, “Supersaturated topical compositions” (priority 1992, dated 1997):

Assay: Saturated concentration of hydrocortisone acetate in propylene glycol
Assay type: physicochemical
Conditions: saturated solution in propylene glycol (Sample A)

CC(=O)OCC(=O)[C@@]1(O)CC[C@H]2[C@@H]3CCC4=CC(=O)CC[C@]4(C)[C@H]3[C@@H](O)C[C@@]21C [hydrocortisone acetate]
concentration of saturated solution in propylene glycol: 0.10 % w/w
